Converted amounts (≈) assume the structure as drawn. Read-outs that look alike come from different tables or passages of the source.
Tests used:
E. faecalis ATCC 29212 [1] = assay: MIC and MBC determination; assay type: cell-based; conditions: Enterococcus faecalis, ATCC29212, E. faecalis
S. aureus ATCC 29213 [2] = assay: MIC and MBC determination; assay type: cell-based; conditions: Staphylococcus aureus, ATCC29213, S. aureus
S. aureus ATCC 33591 [3] = assay: Inhibition zone against multidrug-resistant bacteria; assay type: cell-based; conditions: MDRB S. aureus ATCC 33591
Description: (§1) Norfloxacin was used as a positive control for the multidrug resistance study.
(§2) The antimicrobial activity performed at the bacteriology laboratory, Botany and Microbiology Department, Faculty of Science, Al-Azhar University, Cairo, Egypt. The inhibition zone (IZ) of the tested derivatives expressed as the diameter (mm) according to the agar plate diffusion method.

S. aureus ATCC 43300 [4] = assay: as above; assay type: cell-based; conditions: MDRB S. aureus ATCC 43300
Description: as §1, §2

E. coli ATCC BAA-196 [5] = assay: as above; assay type: cell-based; conditions: MDRB E. coli ATCC BAA-196
Description: as §1, §2

[6] = system: P. aeruginosa ATCC BAA-2111; assay: as above; assay type: cell-based; conditions: MDRB P. aeruginosa ATCC BAA-2111
Description: as §1, §2

S. aureus ATCC 33591 [7] = assay: MIC and MBC against multidrug-resistant strains; assay type: cell-based; conditions: Staphylococcus aureus, ATCC33591, S. aureus ATCC 33591; for MBC: read-out: MBC; for MIC: read-out: MIC
Description: as §1
(§3) The experiment was repeating for three-times.

S. aureus ATCC 43300 [8] = assay: MIC and MBC against multidrug-resistant strains; assay type: cell-based; conditions: Staphylococcus aureus, ATCC43300, S. aureus ATCC 43300; for MBC: read-out: MBC; for MIC: read-out: MIC
Description: as §1, §3

E. coli ATCC BAA-196 [9] = assay: MIC and MBC against multidrug-resistant strains; assay type: cell-based; conditions: E. coli ATCC BAA-196
Description: as §1, §3

[10] = system: P. aeruginosa ATCC BAA-2111; assay: MIC and MBC against multidrug-resistant strains; assay type: cell-based; conditions: P. aeruginosa ATCC BAA-2111
Description: as §1, §3

[11] = system: Salmonella typhi (S. typhi ATCC 6539); assay: microbe, parasite or virus in culture; assay type: cell-based; conditions: Salmonella enterica, Salmonella typhi
E. coli ATCC 25922 [12] = assay: MIC and MBC determination; assay type: cell-based; conditions: Escherichia coli, ATCC25922, E. coli
B. subtilis ATCC 6633 [13] = assay: MIC and MBC determination; assay type: cell-based; conditions: Bacillus subtilis, ATCC6633, B. subtilis
C. albicans (ATCC 10231) [14] = assay: MIC and MFC determination; assay type: cell-based
[15] = system: CD4+ and CD8+ T lymphocytes; assay: In vivo T lymphocyte subsets from peripheral blood, flow cytometry; conditions: mice
Description: Activation of immune cells as CD4^+ and CD8^+ T cells is one possible mechanism of a drug’s immune stimulus activity. An increase in these cells is thought to be a good indicator of an active immune response to infections. So, our work extended to study the effect of the most promising derivatives (2d, 8, and 11) on T lymphocyte subsets (CD4^+ and CD8^+) from peripheral blood, and determined the relative level in model mice that analyzed by flow cytometry after the period of treating.
In vitro intracellular killing activities for the most promising six derivatives 2a, 2b, 2d, 3a, 8, and 11 were performed according to reported methods.

E. faecalis ATCC 29212 [16] = assay: Inhibition zone, paper disk/agar diffusion; assay type: cell-based; conditions: E. faecalis; Na = no activity
Description: as §2

[17] = system: F. oxysporum (RCMB 008002); assay: Inhibition zone, paper disk/agar diffusion; assay type: cell-based; conditions: Na = no activity
Description: as §2

S. typhi ATCC 6539 = assay: Inhibition zone, paper disk/agar diffusion; assay type: cell-based; conditions: S. typhi; Na = no activity
Description: as §2

C. albicans (ATCC 10231) [18] = assay: Inhibition zone, paper disk/agar diffusion; assay type: cell-based; conditions: Na = no activity
Description: as §2

E. coli ATCC 25922 [19] = assay: Inhibition zone, paper disk/agar diffusion; assay type: cell-based; conditions: E. coli; Na = no activity
Description: as §2

S. aureus ATCC 29213 [20] = assay: Inhibition zone, paper disk/agar diffusion; assay type: cell-based; conditions: S. aureus; Na = no activity
Description: as §2

B. subtilis ATCC 6633 [21] = assay: Inhibition zone, paper disk/agar diffusion; assay type: cell-based; conditions: B. subtilis; Na = no activity
Description: as §2

P. aeruginosa ATCC 27853 [22] = assay: Inhibition zone, paper disk/agar diffusion; assay type: cell-based; conditions: P. aeruginosa; Na = no activity
Description: as §2

spleen and thymus = assay: In vivo immunomodulation: immune organ weight and indexes; set-up: Spleen index: unit not given here; conditions: mice
Description: Both the spleen and thymus have important antibacterial and fungal immune organ responses, and any change in weight, and indexes can reflect the level of immune regulation. Additionally, the relative spleen and thymus indexes are important indices for nonspecific immunity and potential immunomodulatory compounds that increase the spleen and thymus weight. This increase is due to immune cells’ stimulation in the spleen and thymus. […]

[23] = system: F. oxysporum (RCMB 008002); assay: MIC and MFC determination; assay type: cell-based
S. aureus DNA gyrase = S. aureus DNA gyrase (Staphylococcus aureus, UniProt P0A0K8+P20831); assay: In vitro DNA gyrase supercoiling enzymatic assay; assay type: biochemical
Chain of S. aureus DNA gyrase (P20831 whole entry): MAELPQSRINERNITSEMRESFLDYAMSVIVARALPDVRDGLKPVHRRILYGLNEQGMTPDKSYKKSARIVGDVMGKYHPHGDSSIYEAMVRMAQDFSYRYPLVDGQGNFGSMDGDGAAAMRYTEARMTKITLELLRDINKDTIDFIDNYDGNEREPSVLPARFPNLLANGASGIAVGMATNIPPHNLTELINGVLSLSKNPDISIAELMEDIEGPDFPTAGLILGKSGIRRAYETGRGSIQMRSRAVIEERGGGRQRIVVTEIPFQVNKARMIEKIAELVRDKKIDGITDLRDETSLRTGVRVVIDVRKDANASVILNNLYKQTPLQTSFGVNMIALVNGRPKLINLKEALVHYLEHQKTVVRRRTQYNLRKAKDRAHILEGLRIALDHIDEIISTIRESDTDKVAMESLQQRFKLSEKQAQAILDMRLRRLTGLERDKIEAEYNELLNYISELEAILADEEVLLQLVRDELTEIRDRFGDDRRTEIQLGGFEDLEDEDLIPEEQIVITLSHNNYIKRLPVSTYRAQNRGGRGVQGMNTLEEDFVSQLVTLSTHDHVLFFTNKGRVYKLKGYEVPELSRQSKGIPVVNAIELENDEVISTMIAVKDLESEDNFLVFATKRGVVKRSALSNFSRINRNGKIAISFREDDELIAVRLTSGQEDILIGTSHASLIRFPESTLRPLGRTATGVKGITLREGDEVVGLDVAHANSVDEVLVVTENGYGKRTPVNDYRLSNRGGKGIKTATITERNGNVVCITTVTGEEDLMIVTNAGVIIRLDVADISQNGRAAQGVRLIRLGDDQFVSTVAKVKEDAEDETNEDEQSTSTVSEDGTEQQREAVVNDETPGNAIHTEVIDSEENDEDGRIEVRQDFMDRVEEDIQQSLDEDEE
Chain of S. aureus DNA gyrase (P0A0K8 whole entry): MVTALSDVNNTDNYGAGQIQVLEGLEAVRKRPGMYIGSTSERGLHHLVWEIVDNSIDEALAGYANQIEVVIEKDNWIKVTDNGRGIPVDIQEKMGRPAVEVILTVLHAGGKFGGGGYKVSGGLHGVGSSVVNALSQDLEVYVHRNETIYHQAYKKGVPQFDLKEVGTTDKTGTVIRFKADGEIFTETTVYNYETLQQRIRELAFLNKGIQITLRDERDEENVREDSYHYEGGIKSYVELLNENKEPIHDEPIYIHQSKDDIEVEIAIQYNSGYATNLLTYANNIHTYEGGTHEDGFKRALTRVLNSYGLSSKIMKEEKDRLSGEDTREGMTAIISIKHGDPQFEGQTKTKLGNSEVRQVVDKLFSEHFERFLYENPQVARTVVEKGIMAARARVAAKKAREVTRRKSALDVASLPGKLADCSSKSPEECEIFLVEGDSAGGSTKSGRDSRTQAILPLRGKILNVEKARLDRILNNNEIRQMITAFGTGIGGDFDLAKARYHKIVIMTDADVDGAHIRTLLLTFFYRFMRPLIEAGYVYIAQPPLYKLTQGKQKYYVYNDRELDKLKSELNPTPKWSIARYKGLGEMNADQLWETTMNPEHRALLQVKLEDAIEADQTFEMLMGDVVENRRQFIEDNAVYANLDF

P. aeruginosa ATCC 27853 [24] = assay: MIC and MBC determination; assay type: cell-based; conditions: Pseudomonas aeruginosa, ATCC27853, P. aeruginosa
MDRB strains = assay: MIC and MBC, ranges over the MDRB panel; assay type: cell-based; conditions: four MDRB strains
Description: as §1, §3

[25] = Escherichia coli, ATCCBAA196, read-out: MBC
[26] = Escherichia coli, ATCCBAA196, read-out: MIC
[27] = Pseudomonas aeruginosa, ATCCBAA2111, read-out: MBC
[28] = Pseudomonas aeruginosa, ATCCBAA2111, read-out: MIC

N=C(N)NS(=O)(=O)c1ccc(NC(=O)c2cc3ccccc3oc2=N)cc1 [Compound 11, N-(4-(N-Carbamimidoylsulfamoyl)phenyl)-2-imino-2H-chromene-3-carboxamide]
MBC (E. faecalis ATCC 29212 [1]; read-out: MBC): 81.1 ± 0.98 µM (≈ 31.2 µg/mL)
MIC (E. faecalis ATCC 29212 [1]; read-out: MIC): 40.5 ± 0.74 µM (≈ 15.6 µg/mL)
MBC (S. aureus ATCC 29213 [2]; read-out: MBC): 40.5 ± 1.02 µM (≈ 15.6 µg/mL)
MIC (S. aureus ATCC 29213 [2]; read-out: MIC): 20.3 ± 0.67 µM (≈ 7.81 µg/mL)
Mean Diameter of Inhibition Zone (S. aureus ATCC 33591 [3]): 22 ± 0.65 mm
Mean Diameter of Inhibition Zone (S. aureus ATCC 43300 [4]): 17 ± 0.3 mm
Mean Diameter of Inhibition Zone (E. coli ATCC BAA-196 [5]): 19 ± 0.88 mm
Mean Diameter of Inhibition Zone [6]: 23 ± 0.25 mm
MBC (S. aureus ATCC 33591 [7]): 19.2 ± 0.65 µM (≈ 7.41 µg/mL)
MIC (S. aureus ATCC 33591 [7]): 10.1 ± 0.29 µM (≈ 3.9 µg/mL)
MBC (S. aureus ATCC 43300 [8]): 81.1 ± 0.85 µM (≈ 31.2 µg/mL)
MIC (S. aureus ATCC 43300 [8]): 40.52 ± 0.36 µM (≈ 15.6 µg/mL)
MBC (E. coli ATCC BAA-196 [9]; [25]): 48 ± 0.81 µM (≈ 18.5 µg/mL)
MIC (E. coli ATCC BAA-196 [9]; [26]): 24 ± 0.49 µM (≈ 9.25 µg/mL)
MBC [10, 27]: 81.1 ± 0.86 µM (≈ 31.2 µg/mL)
MIC [10, 28]: 40.5 ± 0.74 µM (≈ 15.6 µg/mL)
MBC ([11]; read-out: MBC): 94.7 ± 0.79 µM (≈ 36.5 µg/mL)
MIC ([11]; read-out: MIC): 48 ± 0.85 µM (≈ 18.5 µg/mL)
MBC (E. coli ATCC 25922 [12]; read-out: MBC): 40.5 ± 0.75 µM (≈ 15.6 µg/mL)
MIC (E. coli ATCC 25922 [12]; read-out: MIC): 20.3 ± 0.36 µM (≈ 7.81 µg/mL)
MBC (B. subtilis ATCC 6633 [13]; read-out: MBC): 17.2 ± 0.54 µM (≈ 6.63 µg/mL)
MIC (B. subtilis ATCC 6633 [13]; read-out: MIC): 10.1 ± 0.68 µM (≈ 3.9 µg/mL)
MFC/MIC (C. albicans (ATCC 10231) [14]): <2
MFC (C. albicans (ATCC 10231) [14]; Candida albicans, ATCC10231, read-out: MFC): 45.6 ± 0.47 µM (≈ 17.6 µg/mL)
MIC (C. albicans (ATCC 10231) [14]; Candida albicans, ATCC10231, read-out: MIC): 24 ± 0.41 µM (≈ 9.25 µg/mL)
T cells CD4+ [15]: 75.20 ± 0.97%
T cells CD8+ [15]: 24.05 ± 0.32%
Mean Diameter of the Inhibition Zone (E. faecalis ATCC 29212 [16]): 29± 0.54 mm
Mean Diameter of the Inhibition Zone [17]: 18 ± 0.45 mm
Mean Diameter of the Inhibition Zone (S. typhi ATCC 6539): 18 ± 0.36 mm
Mean Diameter of the Inhibition Zone (C. albicans (ATCC 10231) [18]): 22 ± 0.21 mm
Mean Diameter of the Inhibition Zone (E. coli ATCC 25922 [19]): 25 ± 0.43 mm
Mean Diameter of the Inhibition Zone (S. aureus ATCC 29213 [20]): 24 ± 0.29 mm
Mean Diameter of the Inhibition Zone (B. subtilis ATCC 6633 [21]): 28 ± 0.11 mm
Mean Diameter of the Inhibition Zone (P. aeruginosa ATCC 27853 [22]): 24 ± 0.13 mm
Spleen index (spleen and thymus): 0.008 ± 0.00
Spleen weight (spleen and thymus): 190 ± 0.074 mg
Thymus index (spleen and thymus): 0.455 ± 0.07 mg/g
Thymus weight (spleen and thymus): 13.67 ± 0.53 mg
MFC/MIC [23]: <2
MFC ([23]; Fusarium oxysporum, RCMB008002, read-out: MFC): 145.9 ± 1.25 µM (≈ 56.2 µg/mL)
MIC ([23]; Fusarium oxysporum, RCMB008002, read-out: MIC): 81.08 ± 0.54 µM (≈ 31.2 µg/mL)
IC50 (S. aureus DNA gyrase): 39.4 ± 1.15 µM
MBC (P. aeruginosa ATCC 27853 [24]; read-out: MBC): 144 ± 1.47 µM (≈ 55.5 µg/mL)
MIC (P. aeruginosa ATCC 27853 [24]; read-out: MIC): 72 ± 0.96 µM (≈ 27.8 µg/mL)

CCn1cc(C(=O)O)c(=O)c2cc(F)c(N3CCNCC3)cc21 [Norfloxacin, reference compound]
Mean Diameter of Inhibition Zone (S. aureus ATCC 33591 [3]): 26 ± 0.5 mm
Mean Diameter of Inhibition Zone (S. aureus ATCC 43300 [4]): 25 ± 0.5 mm
Mean Diameter of Inhibition Zone (E. coli ATCC BAA-196 [5]): 27 ± 0.98 mm
Mean Diameter of Inhibition Zone [6]: 24 ± 0.47 mm
MBC (S. aureus ATCC 33591 [7]): 4.38 ± 0.49 µM (≈ 1.4 µg/mL)
MIC (S. aureus ATCC 33591 [7]): 2.44 ± 0.45 µM (≈ 0.779 µg/mL)
MBC (S. aureus ATCC 43300 [8]): 7.82 ± 0.32 µM (≈ 2.5 µg/mL)
MIC (S. aureus ATCC 43300 [8]): 3.91 ± 0.21 µM (≈ 1.25 µg/mL)
MBC (E. coli ATCC BAA-196 [9]; listed as Nor.): 8.32 ± 0.47 µM (≈ 2.66 µg/mL)
MIC (E. coli ATCC BAA-196 [9]; listed as Nor.): 4.91 ± 0.69 µM (≈ 1.57 µg/mL)
MBC (E. coli ATCC BAA-196 [9]; [25]): 8.32 µM (≈ 2.66 µg/mL)
MIC (E. coli ATCC BAA-196 [9]; [26]): 4.91 µM (≈ 1.57 µg/mL)
MBC ([10]; listed as Nor.): 16.65 ± 0.19 µM (≈ 5.32 µg/mL)
MIC ([10]; listed as Nor.): 9.80 ± 0.41 µM (≈ 3.13 µg/mL)
MBC [10, 27]: 16.6 µM (≈ 5.32 µg/mL)
MIC [10, 28]: 9.8 µM (≈ 3.13 µg/mL)
MBC range (MDRB strains): 4.38 to 16.65 µM
MIC range (MDRB strains): 2.44 to 9.80 µM

O=C1O[C@H]([C@@H](O)CO)C(O)=C1O [Vitamin C, vitamin C, reference compound]
T cells CD4+ [15]: 76.74 ± 0.7%
T cells CD8+ [15]: 19.62 ± 0.21%
Spleen weight (spleen and thymus): 260 ± 0.028 mg
Thymus index (spleen and thymus): 0.633 ± 0.06 mg/g
Thymus weight (spleen and thymus): 17.2 ± 0.31 mg
